Test results from patent publication EP0363224A1, “Treatment of periodontal disease” (BLOCK DRUG COMPANY INC., priority 1988, dated 1990).

Experiments:
alveolar bone resorption = settings: long-term therapy, compared to matched undosed control group; cited from earlier work
[1] = tested on: naturally occurring periodontal disease; settings: systemic doses, 12-month treatment, compared to untreated or periodontal surgery control groups; cited from earlier work
cyclooxygenase = test: inhibition of cyclooxygenase conversion of radiolabeled arachidonic acid into prostaglandins in homogenate of inflamed gingival tissue; assay type: biochemical, humans; settings: comparison of IC₅₀ values
Protocol: Inflamed gingival tissues from the mouths of humans suffering from periodontal disease were used fresh or stored in liquid nitrogen until used. Tis­sues were pooled, homogenized in 0.2 M TRIS buffer, and centrifuged. Radiolabeled arachidonic acid (¹⁴C) was added to the centrifrugate into which various in­hibiting agents under study had been incorporated into separate aliquots, at various molar levels (log range of 10⁻³ to 10⁻⁹M). The reaction between arachidonic acid and test materials was carried out for 2 hours at 37°C.
Prostaglandins in the biological reaction mixtures were extracted and quantitatively determined by high performance liquid chromatography.

Compound | rate of alveolar bone resorption (alveolar bone resorption) | other results
COc1ccc2c(c1)c(CC(=O)O)c(C)n2C(=O)c1ccc(Cl)cc1 [Indomethacin] | lower rate of alveolar bone resorption | 
CC(C(=O)O)c1ccc(-c2ccccc2)c(F)c1 (stereo not shown) [Flurbiprofen] |  | alveolar bone loss [1]: significant reduction in alveolar bone loss
CC(=O)Oc1ccccc1C(=O)O [aspirin] | lower rate of alveolar bone resorption | 
CC(C(=O)O)c1cccc(C(=O)c2ccccc2)c1 (stereo not shown) [2-methyl (3-benzoylphenyl) propanoic acid] |  | effectiveness compared with other test materials (cyclooxygenase): slightly more effective than alpha tocopherol
